From article PMC6337619, “Identification of Novel Potential Inhibitors of Pteridine Reductase 1 in Trypanosoma brucei via Computational Structure-Based Approaches and in Vitro Inhibition Assays” (Molecules, 2019)
“And” between values parts separate entries of the source, which are not always exact repeats. Equal entries are not always repeated. “Also recorded” adds a separate entry of the source. Where two headings read alike, the source gives them in different places.

Key:
[1] = test system: T. b. brucei (strain Lister 427); experiment: Trypanosoma in vitro inhibition assay (resazurin); type: cell-based; details: for anti-trypanosomal activity at single concentration: 20 µM, T. brucei BSF in culture; for IC50: blood stream form, 24 h + 24 h resazurin, mean ± SD of three independent experiments, read-out: IC50 against T. brucei BSF in culture
Procedure: (§1) Compounds RUBi001, RUBi005, and RUBi015 were purchased from MCULE while RUBi002, RUBi004, RUBi007, RUBi008, RUBi010, RUBi011, RUBi012, RUBi014, RUBi016, and RUBi018 were obtained from MolPort (not all the compounds were commercially available). These compounds were assayed for trypanocidal activity by adding 20 μM of each compound to cultures of T. b. brucei (strain Lister 427) in 96-well plates. The parasites were maintained at 37 °C and 5% CO2 in an IMDM medium containing 25 mM HEPES, 10% fetal bovine serum, 1 mM hypoxanthine, 0.05 mM bathocuproine disulfonic acid, 1.5 mM cysteine, 1.25 mM pyruvic acid, 0.09 mM uracil, 0.09 mM cytosine, 0.16 mM thymidine, and 0.014 % 2-mercaptoethanol. Parasites were diluted to 2.4 × 10^4 cells in a volume of 200 µL per well and incubated with the test compounds for 24 h. Parasite percentage viability was determined using the resazurin method. Resazurin (0.5 mM in phosphate-buffered saline; 20 µL/well) was added to each well and incubation continued for a further 24 h, after which fluorescence (Ex560/Em590) was read in a Spectramax M3 microplate reader (Molecular Devices). Trypanocidal activity of the compounds was reported as the percentage of viable parasites in the compound-treated wells when compared to untreated controls (% viability). Pentamidine, an FDA-approved trypanocidal drug, was used as the control drug standard. For compounds that produced <20% viability, IC50 values were subsequently determined. The assays were conducted as described above, except that parasites were incubated with 3-fold serial dilutions of the test compounds and IC50 values derived from % parasite viability vs. log[compound] dose-response plots by non-linear regression analysis using GraphPad Prism (version 5.02, GraphPad Software Inc., San Diego, USA). IC50 evaluations were carried out on three independent occasions and the mean IC50 ± standard deviation is reported in the text. To assess compound interactions, the compounds were assayed for trypanocidal activity when used in combination with WR99210, a known TbDHFR inhibitor [42]. […] For isobologram analysis, the fractional inhibitory concentrations of the RUBi compounds and WR99210 were calculated by dividing the IC50s obtained for the compounds at the various combination ratios with the IC50 obtained for the compounds in the absence of the partner drug, and the FIC values plotted against each other, i.e., RUBi compound FIC versus WR99210 FIC.

[2] = test system: T. brucei in culture; parameters: method as in PMID 16729575, PMID 16569852; details: cited from earlier work
[3] = test system: T. b. brucei (strain Lister 427); experiment: Isobologram combination assay with WR99210; type: cell-based; details: ratios 75:25, 50:50, 25:75 with TbDHFR inhibitor WR99210
Procedure: as §1

[4] = In vitro human cytotoxicity assay (resazurin); details: human, HeLa cells
Procedure: (§2) The compounds assayed for trypanocidal activity were also tested to determine if they caused adverse effects against human cells in vitro. For this assay, HeLa cells were used. The cells were cultured in DMEM supplemented with 10% fetal calf serum and antibiotics (penicillin/streptomycin/amphotericin B) at 37 °C in a 5 % CO2 incubator. Cells were plated at a density of 2 × 10^4 cells/well and after an overnight incubation the compounds were assayed for cytotoxic activity by adding three-fold serial dilutions of each compound (with a 100 µM starting concentration) to the 96-well plates, followed by incubation for 48 h. Cell viability was determined using the resazurin method [74]. Resazurin (0.5 mM in phosphate-buffered saline; 20 µL/well) was added to the cells and, after a 2-h incubation, fluorescence was read in a Spectramax M3 plate reader at excitation and emission wavelengths of 560 nm and 590 nm, respectively. Fluorescence readings were converted to percentage cell viability relative to control wells untreated with compounds. Plots of % cell viability versus log[compound] were used to determine IC50 values by non-linear regression using GraphPad Prism (version 5.02, GraphPad Software Inc., San Diego, USA). Three repeats of the experiment were carried out.

[5] = in vitro; details: human, HeLa cells
Procedure: as §2

[6] = test system: HeLa cells; experiment: In vitro human cytotoxicity assay (resazurin); details: at 100 µM
Procedure: as §2

SMILES	anti-trypanosomal activity at single concentration [1]	effect in combination with WR99210 (isobologram, FIC) [3]	IC50 ([1]; Trypanosoma brucei, 48 h) [µM]	other results
COc1ccc2oc3cc(OCC(=O)Nc4c(C)cccc4C)cc(O)c3c(=O)c2c1 [RUBi002, N-(2,6-dimethylphenyl)-2-(1-hydroxy-7-methoxy-9-oxo-xanthen-3-yl)oxy-acetamide]	did not show anti-trypanosomal activity	–	–	–
Cc1ccc(NC(=O)Cn2c(-c3nonc3N)nc3ccccc32)cc1F [RUBi011, 2-[2-(4-amino-1,2,5-oxadiazol-3-yl)-1H-benzimidazol-1-yl]-N-(3-fluoro-4-methylphenyl)acetamide]	did not show anti-trypanosomal activity	–	–	–
O=C1CC(c2ccc(O)c(O)c2)Oc2cc(O)cc(O)c21 (stereo not drawn) [RUBi014, 2-(3,4-dihydroxyphenyl)-5,7-dihydroxy-3,4-dihydro-2H-1-benzopyran-4-one]	–	reduced inhibition; also recorded: moderate to strong antagonism; also recorded: antagonistic effect	14.6 ± 9.9	anti-protozoal activity [2]: selectively anti-protozoal with activity against T. brucei in culture; IC50 at 48 h [4]: 32.9 ± 2.2 µM
COc1ccc(NC(=O)CSc2nc3[nH]ncc3c(=O)n2-c2ccccc2)cc1 [RUBi007, N-(4-methoxyphenyl)-2-[(4-oxo-5-phenyl-4,5-dihydro-1H-pyrazolo[3,4-d]pyrimidin-6-yl)sulfanyl]acetamide]	–	reduced inhibition; also recorded: moderate to strong antagonism; also recorded: antagonistic effects	34.9 ± 17.1	effect in combination with WR99210 (isobologram, FIC) ([3]; listed as RUB007): antagonistic effect; viability at 48 h, 100 µM [5]: > 90%; human cell cytotoxicity [6]: no significant human (human cervix adenocarcinoma (HeLa)) cell cytotoxicity
Cn1c(=O)c2ncn(CC(=O)Nc3ccc(O)cc3)c2n(C)c1=O [RUBi016, 2-(1,3-dimethyl-2,6-dioxo-1,2,3,6-tetrahydro-9H-purin-9-yl)-N-(4-hydroxyphenyl)acetamide]	–	additive effect	25.4 ± 4.7	viability at 48 h, 100 µM [5]: > 90%; human cell cytotoxicity [6]: no significant human (human cervix adenocarcinoma (HeLa)) cell cytotoxicity
O=c1cc(-c2cccc(O)c2O)oc2ccc(O)cc12 [RUBi001, 2-(2,3-dihydroxyphenyl)-6-hydroxychromen-4-one]	did not show anti-trypanosomal activity	–	–	–
NS(=O)(=O)c1ccc(NC(=O)NC2CCCCC2)cc1 [RUBi012, 1-cyclohexyl-3-(4-sulfamoylphenyl)urea]	did not show anti-trypanosomal activity	–	–	–
CC1=NN(c2ccc(C)cc2C)C(=O)/C1=C/NNC(=O)c1cccc([N+](=O)[O-])c1 [RUBi004, N'-{[1-(2,4-dimethylphenyl)-3-methyl-5-oxo-1,5-dihydro-4H-pyrazol-4-ylidene]methyl}-3-nitrobenzohydrazide]	–	reduced inhibition; also recorded: moderate to strong antagonism; also recorded: antagonistic effect	9.6 ± 3.2	IC50 at 48 h [4]: 23.6 ± 5.8 µM
Nc1ccc2nc(SCC(=O)N3CCCC3)sc2c1 [RUBi010, 2-{[2-oxo-2-(1-pyrrolidinyl)ethyl]sulfanyl}-1,3-benzothiazol-6-ylamine]	did not show anti-trypanosomal activity	–	–	–
Cc1ccccc1OCC(=O)NNC(=S)NC(=O)c1ccccc1[N+](=O)[O-] [RUBi005, 2-nitro-N-({2-[(2-methylphenoxy)acetyl]hydrazino}carbothioyl)benzamide]	did not show anti-trypanosomal activity	–	–	–
CC1(C)N=C(N)N=C(N)N1OCCCOc1cc(Cl)c(Cl)cc1Cl [WR99210, reference compound]	–	–	–	IC50 [1]: 0.5 µM and 0.55 µM
CC[C@H]1CN2CCc3cc(OC)c(OC)cc3[C@@H]2C[C@@H]1C[C@H]1NCCc2cc(OC)c(OC)cc21 [Emetine, reference compound]	–	–	–	IC50 at 48 h [4]: 0.013 µM
COc1cc(CNc2nc[nH]n2)ccc1OCc1cccc(C)c1 [RUBi008, [3-Methoxy-4-(3-methyl-benzyloxy)-benzyl]-(1H-[1,2,4]triazol-3-yl)-amine]	did not show anti-trypanosomal activity	–	–	–
N=C(N)c1ccc(OCCCCCOc2ccc(C(=N)N)cc2)cc1 [pentamidine, reference compound]	–	–	0.014	–
O=C(CC1S/C(=N\N=C2CCCC2)N=C1O)Nc1ccccc1 (stereo not drawn) [RUBi018, 2-[2-(cyclopentylidenehydrazono)-4-hydroxy-2,5-dihydro-1,3-thiazol-5-yl]-N-phenylacetamide]	–	reduced inhibition; also recorded: moderate to strong antagonism; also recorded: antagonistic effect	12.7 ± 3.7	viability at 48 h, 100 µM [5]: > 90%; human cell cytotoxicity [6]: no significant human (human cervix adenocarcinoma (HeLa)) cell cytotoxicity
